From BindingDB's records for patent US11547697 (Millennium Pharmaceuticals, 2023)
pIC50: −log10 of the molar value.

Columns and labels:
[1] = biological target: T1, Phosphatidylinositol 4,5-bisphosphate 3-kinase catalytic subunit delta isoform (Homo sapiens, UniProt O00329); experiment: Inhibition Assay of PI3K
T1 sequence (O00329 whole entry): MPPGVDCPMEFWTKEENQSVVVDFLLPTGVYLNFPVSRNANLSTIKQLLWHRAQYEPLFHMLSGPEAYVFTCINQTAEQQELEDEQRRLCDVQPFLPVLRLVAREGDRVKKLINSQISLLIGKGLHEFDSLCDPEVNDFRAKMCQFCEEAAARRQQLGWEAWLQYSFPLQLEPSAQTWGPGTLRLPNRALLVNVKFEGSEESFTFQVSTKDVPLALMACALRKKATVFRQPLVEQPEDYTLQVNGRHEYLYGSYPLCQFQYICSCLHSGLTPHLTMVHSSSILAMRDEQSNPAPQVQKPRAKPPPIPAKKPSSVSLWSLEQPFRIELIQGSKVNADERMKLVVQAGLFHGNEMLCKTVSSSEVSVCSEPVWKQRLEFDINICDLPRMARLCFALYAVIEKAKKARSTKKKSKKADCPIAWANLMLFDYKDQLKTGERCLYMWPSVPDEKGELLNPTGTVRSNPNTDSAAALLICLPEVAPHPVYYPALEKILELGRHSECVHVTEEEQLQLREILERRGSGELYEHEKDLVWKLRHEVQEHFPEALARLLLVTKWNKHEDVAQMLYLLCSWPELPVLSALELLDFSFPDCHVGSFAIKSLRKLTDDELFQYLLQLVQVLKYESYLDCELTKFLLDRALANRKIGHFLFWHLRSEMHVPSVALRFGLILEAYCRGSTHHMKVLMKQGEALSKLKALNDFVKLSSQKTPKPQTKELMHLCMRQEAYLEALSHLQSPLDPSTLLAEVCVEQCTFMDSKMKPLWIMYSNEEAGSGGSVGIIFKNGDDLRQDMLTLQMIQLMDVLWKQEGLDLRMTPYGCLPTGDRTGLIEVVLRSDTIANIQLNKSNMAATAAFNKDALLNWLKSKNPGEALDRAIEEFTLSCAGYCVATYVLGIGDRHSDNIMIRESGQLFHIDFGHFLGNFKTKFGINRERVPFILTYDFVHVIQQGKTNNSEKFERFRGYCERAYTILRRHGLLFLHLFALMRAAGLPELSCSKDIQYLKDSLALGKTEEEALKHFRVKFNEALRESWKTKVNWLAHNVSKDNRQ
Description: (§1) An exemplary system is PI 3-Kinase (human) HTRF Assay from Upstate. […] Briefly, the assay is a time resolved FRET assay that indirectly measures PIP3 product formed by the activity of a PI3-K. The kinase reaction is performed in a microtitre plate (e.g., a 384 well microtitre plate). The total reaction volume is approximately 20 ul per well. In the first step, each well receives 2 ul of test compound in 20% dimethylsulphoxide resulting in a 2% DMSO final concentration. Next, approximately 14.5 ul of a kinase/PIP2 mixture (diluted in 1× reaction buffer) is added per well for a final concentration of 0.25-0.3 ug/ml kinase and 10 μM PIP2. The plate is sealed and incubated for 15 minutes at room temperature. To start the reaction, 3.5 ul of ATP (diluted in 1× reaction buffer) is added per well for a final concentration of 10 μM ATP. The plate is sealed and incubated for 1 hour at room temperature. The reaction is stopped by adding 5 ul of Stop Solution per well and then 5 ul of Detection Mix is added per well. The plate is sealed, incubated for 1 hour at room temperature, and then read on an appropriate plate reader.

[2] = biological target: Phosphatidylinositol 4,5-bisphosphate 3-kinase catalytic subunit beta isoform (Homo sapiens, UniProt P42338); experiment: Inhibition Assay of PI3K
Sequence of Phosphatidylinositol 4,5-bisphosphate 3-kinase catalytic subunit beta isoform (P42338 whole entry, canonical isoform): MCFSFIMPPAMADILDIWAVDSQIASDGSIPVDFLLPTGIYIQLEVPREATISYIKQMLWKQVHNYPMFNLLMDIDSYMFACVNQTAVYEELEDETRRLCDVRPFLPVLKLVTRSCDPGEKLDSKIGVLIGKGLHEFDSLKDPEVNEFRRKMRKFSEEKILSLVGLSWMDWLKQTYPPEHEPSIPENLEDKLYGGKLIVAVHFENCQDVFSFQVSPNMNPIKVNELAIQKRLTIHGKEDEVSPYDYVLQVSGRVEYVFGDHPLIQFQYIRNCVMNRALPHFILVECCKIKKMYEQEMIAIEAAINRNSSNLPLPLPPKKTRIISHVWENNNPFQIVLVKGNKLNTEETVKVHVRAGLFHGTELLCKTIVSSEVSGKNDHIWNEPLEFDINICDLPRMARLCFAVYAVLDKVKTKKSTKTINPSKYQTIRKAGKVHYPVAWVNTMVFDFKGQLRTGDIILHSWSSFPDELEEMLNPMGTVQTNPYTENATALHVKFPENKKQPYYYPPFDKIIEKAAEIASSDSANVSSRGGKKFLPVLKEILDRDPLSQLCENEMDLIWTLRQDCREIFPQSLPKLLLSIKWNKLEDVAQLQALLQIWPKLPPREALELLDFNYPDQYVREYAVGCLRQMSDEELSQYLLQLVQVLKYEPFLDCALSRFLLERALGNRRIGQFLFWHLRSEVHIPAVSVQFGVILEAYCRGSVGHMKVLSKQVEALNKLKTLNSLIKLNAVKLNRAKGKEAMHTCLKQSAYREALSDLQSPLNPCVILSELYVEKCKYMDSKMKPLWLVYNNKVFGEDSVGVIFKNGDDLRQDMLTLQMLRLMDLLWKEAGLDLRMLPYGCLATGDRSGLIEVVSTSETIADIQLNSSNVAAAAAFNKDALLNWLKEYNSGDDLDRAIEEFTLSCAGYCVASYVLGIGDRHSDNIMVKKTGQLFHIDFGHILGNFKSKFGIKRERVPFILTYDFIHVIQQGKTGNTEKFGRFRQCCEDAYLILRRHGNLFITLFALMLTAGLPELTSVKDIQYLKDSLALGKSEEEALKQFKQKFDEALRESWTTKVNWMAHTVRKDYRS
Description: as §1

| SMILES | pIC50 [1] | pIC50 [2] |
| --- | --- | --- |
| CC(=O)Nc1nc2ccc(-c3ccc4nccc(-c5ccncc5)c4c3)cc2s1 [US11547697, Compound 2] | < 5.00 | < 5.00 |
| Nc1ncnc2ccc(-c3ccc4nccc(-c5ccncc5)c4c3)cc12 [US11547697, Compound 8] | – | < 5.00 |
| Nc1nc2cc(-c3cc4nccc(-c5ccncc5)c4s3)ccc2o1 [US11547697, Compound 14] | < 5.00 | < 5.00 |
| Nc1noc2ccc(-c3ccc4nccc(-c5ccncc5)c4c3)cc12 [US11547697, Compound 18] | < 5.00 | < 5.00 |
| Nc1nc2cc(-c3c[nH]c4nccc(-c5ccncc5)c34)ccc2o1 [US11547697, Compound 25] | < 5.00 | < 5.00 |
| Nc1nc2cc(-c3ccc4ncc(-c5cccnc5)nc4c3)ccc2o1 [US11547697, Compound 76] | < 5.00 | < 5.00 |
| N#Cc1cnc2ccc(-c3ccc4oc(N)nc4c3)cc2c1 [US11547697, Compound 93] | < 5.00 | < 5.00 |
| Nc1nc2cc(-c3ccc4ncc(N5CCS(=O)(=O)CC5)nc4c3)ccc2o1 [US11547697, Compound 98] | < 5.00 | < 5.00 |
| CN1CCN(C(=O)c2cnc3ccc(-c4ccc5oc(N)nc5c4)nn23)CC1 [US11547697, Compound 104] | < 5.00 | < 5.00 |
| C[C@@H]1CN(C(=O)c2cnc3ccc(-c4ccc5oc(N)nc5c4)cn23)C[C@H](C)O1 [US11547697, Compound 106] | < 5.00 | < 5.00 |
| Nc1nc2cc(-c3ccc4ncc(C(=O)N5CCS(=O)(=O)CC5)n4c3)ccc2o1 [US11547697, Compound 107] | < 5.00 | < 5.00 |
| CS(=O)(=O)N1CCN(C(=O)c2cnc3ccc(-c4ccc5oc(N)nc5c4)cn23)CC1 [US11547697, Compound 112] | – | < 5.00 |
| CC(=O)N1CCN(C(=O)c2cnc3ccc(-c4ccc5oc(N)nc5c4)cn23)CC1 [US11547697, Compound 113] | < 5.00 | < 5.00 |
| Nc1nc2ccc(-c3ccc4ncc(N5CCOCC5)nc4c3)cc2s1 [US11547697, Compound 114] | < 5.00 | < 5.00 |
| Nc1nc2ccc(-c3ccc4ncc(C(=O)N5CCOCC5)n4c3)cc2s1 [US11547697, Compound 125] | – | < 5.00 |
| C[C@@H]1CN(c2cnc3ccc(-c4ccc5oc(N)nc5c4)cc3n2)C[C@H](C)O1 [US11547697, Compound 132] | < 5.00 | < 5.00 |
| CCN1CCN(C(=O)c2cnc3ccc(-c4ccc5oc(N)nc5c4)cn23)CC1 [US11547697, Compound 141] | < 5.00 | < 5.00 |
| Nc1nc2cc(-c3ccc4ncc(C(=O)N5CCN(CCO)CC5)n4c3)ccc2o1 [US11547697, Compound 148] | < 5.00 | < 5.00 |
| Nc1nc2cc(-c3ccc4ncc(C(=O)N5CCC(O)CC5)n4c3)ccc2o1 [US11547697, Compound 162] | < 5.00 | < 5.00 |
| Nc1nc2cc(-c3ccc4ncc(N5CCCCC5)nc4c3)ccc2o1 [US11547697, Compound 175] | < 5.00 | < 5.00 |
| Cc1cn(-c2cnc3ccc(-c4ccc5oc(N)nc5c4)cc3n2)cn1 [US11547697, Compound 177] | < 5.00 | < 5.00 |
| Nc1nc2cc(-c3ccc4ncc(C(=O)Nc5cccnc5)n4c3)ccc2o1 [US11547697, Compound 190] | – | < 5.00 |
| Cc1ccc(-c2cnc3ccc(-c4ccc5oc(N)nc5c4)cc3n2)cn1 [US11547697, Compound 194] | < 5.00 | < 5.00 |
| CC(C)n1cnc2ccc(-c3ccc4oc(N)nc4c3)cc2c1=O [US11547697, Compound 206] | < 5.00 | < 5.00 |

| SMILES | pIC50 [1] | pIC50 [2] |
| --- | --- | --- |
| Cc1ccn(C2CCN(c3cnc4ccc(-c5ccc6oc(N)nc6c5)cc4n3)CC2)n1 [US11547697, Compound 223] | < 5.00 | < 5.00 |
| Nc1nc2cc(-c3ccc4ncc(N5CCN(C(=O)C6(N)CC6)CC5)nc4c3)ccc2o1 [US11547697, Compound 226] | – | < 5.00 |
| CC(=O)Nc1ncc(-c2ccc3oc(N)nc3c2)s1 [US11547697, Compound 235] | – | < 5.00 |
| Nc1nc2cc(-c3ccc4ncn(C5CC5)c(=O)c4c3)ccc2o1 [US11547697, Compound 254] | < 5.00 | < 5.00 |
| NC(=O)[C@@H]1CCCN1C(=O)c1cnc2ccc(-c3ccc4oc(N)nc4c3)cn12 [US11547697, Compound 259] | < 5.00 | < 5.00 |
| NC(=O)[C@H]1CCCN1C(=O)c1cnc2ccc(-c3ccc4oc(N)nc4c3)cn12 [US11547697, Compound 260] | < 5.00 | < 5.00 |
| Nc1nc2cc(-c3ccc4ncc(N5CC(N6CCOCC6)C5)nc4c3)ccc2o1 [US11547697, Compound 273] | < 5.00 | < 5.00 |
| NC(=O)[C@@H]1CCCN1C(=O)C1CN(c2cnc3ccc(-c4ccc5oc(N)nc5c4)cc3n2)C1 [US11547697, Compound 283] | < 5.00 | < 5.00 |
| Cc1ccc(NC(=O)c2cnc3ccc(-c4ccc5oc(N)nc5c4)cn23)cn1 [US11547697, Compound 294] | – | < 5.00 |
| Cc1ccn(C2CCN(C(=O)c3cnc4ccc(-c5ccc6oc(N)nc6c5)cn34)CC2)n1 [US11547697, Compound 297] | < 5.00 | < 5.00 |
| Nc1nc2cc(-c3ccc4ncc(N5CCC(n6cccn6)CC5)nc4c3)ccc2o1 [US11547697, Compound 337] | < 5.00 | < 5.00 |
| Nc1nc2cc(-c3ccc4ncc(C(=O)N5CC5)n4c3)ccc2o1 [US11547697, Compound 340] | < 5.00 | < 5.00 |
| Nc1nc2cc(-c3ccc4ncc(N5CC(N6CCC(O)CC6)C5)nc4c3)ccc2o1 [US11547697, Compound 341] | – | < 5.00 |
| COc1ncc(-c2ccc3ncc(C(=O)N4CCOCC4)n3c2)cc1NS(=O)(=O)c1ccccc1 [US11547697, Compound 420] | – | < 5.00 |
| O=C(c1cnc2ccc(-c3cncc(NS(=O)(=O)c4ccccc4)c3)cn12)N1CCOCC1 [US11547697, Compound 424] | – | < 5.00 |
| O=C(c1cnc2ccc(-c3cncc(NS(=O)(=O)c4ccc(F)cc4F)c3)cn12)N1CCOCC1 [US11547697, Compound 425] | – | < 5.00 |
| O=C(c1cnc2ccc(-c3cccc(NS(=O)(=O)c4ccc(F)cc4F)c3)cn12)N1CCOCC1 [US11547697, Compound 454] | – | < 5.00 |
| Nc1nc2cc(-c3ccc4ncc(C(=O)N5CC[C@@H](F)C5)n4c3)ccc2o1 [US11547697, Compound 475] | – | < 5.00 |
| Nc1nc2cc(-c3ccc4ncc(C(=O)N5CC[C@@H](n6cccn6)C5)n4c3)ccc2o1 [US11547697, Compound 477] | – | < 5.00 |
| Nc1nc2cc(-c3ccc4ncc(C(=O)N5CC(n6cccn6)C5)n4c3)ccc2o1 [US11547697, Compound 479] | – | < 5.00 |
| Nc1nc2cc(-c3ccc4ncc(C(=O)N5C6CCC5COC6)n4c3)ccc2o1 [US11547697, Compound 480] | – | < 5.00 |
| C[C@H]1CCCN1C(=O)c1cnc2ccc(-c3ccc4oc(N)nc4c3)cn12 [US11547697, Compound 482] | – | < 5.00 |
| Nc1nc2cc(-c3ccc4ncc(C(=O)N5CC(N6CCC(F)(F)C6)C5)n4c3)ccc2o1 [US11547697, Compound 502] | – | < 5.00 |
| COc1ncc(-c2ccc3ncc(C(=O)N4CCOCC4)n3c2)c2cn[nH]c12 [US11547697, Compound 517] | – | < 5.00 |
